Source: patent publication US9775844B2, “Heterocyclic compounds and uses thereof” (Infinity Pharmaceuticals, Inc., priority 2014, dated 2017)
pIC50: −log10 of the molar value.

Legend:
PI3K α = PI3K α (Homo sapiens (Human), UniProt P42336); experiment: PI3-Kinase Promega ADP-Glo Max assay; assay type: biochemical
Procedure: (§1) Promega ADP-Glo Max assay kit (Cat. No. V7002) was utilized to determine IC50 values for α, β, δ and γ isoforms of human Class I PI3 kinases (Millipore). […] Reactions were incubated at room temperature for 2 hours followed by addition of 25 uL of stop solution. After a 40-minute incubation at room temperature, 50 uL of Promega detection mix was added followed by incubation for 1 hour at room temperature. Plates were then read on Envision plate reader in lunimescence mode. Data was converted to % inhibition using the following equation below:
(§2) [formula] where S is the sample luminescence, Pos is a positive control without added PI3K, Neg is the negative control without added compound. Data was then plotted as % inhibition vs compound concentration.

PI3K β = PI3K β (Homo sapiens (Human), UniProt P42338); experiment: PI3-Kinase Promega ADP-Glo Max assay; assay type: biochemical
PI3K δ = PI3K δ (Homo sapiens (Human), UniProt O00329); experiment: PI3-Kinase Promega ADP-Glo Max assay; assay type: biochemical
PI3K γ = PI3K γ (Homo sapiens (Human), UniProt P48736); experiment: PI3-Kinase Promega ADP-Glo Max assay; assay type: biochemical
Procedure: as §1, §2

PI3K-δ in RAJI cells = PI3K-δ in RAJI cells (Homo sapiens (Human), UniProt O00329); experiment: RAJI p110 δ assay (PI3K-δ selective cellular assay, phospho-AKT); assay type: cell-based; conditions: phospho-AKT; read-out: RAJI p110 δ assay IC50
[1] = target: PI3K-γ in RAW264.7 macrophages (Mus musculus (Mouse), UniProt Q9JHG7); experiment: Raw264.7 p110 γ assay (PI3K-γ selective cellular assay, C5a-stimulated phospho-AKT); assay type: cell-based; conditions: for pIC50: phospho-AKT, read-out: Raw264.7 p110 γ assay IC50
Sequence of PI3K-γ in RAW264.7 macrophages (Q9JHG7 whole entry): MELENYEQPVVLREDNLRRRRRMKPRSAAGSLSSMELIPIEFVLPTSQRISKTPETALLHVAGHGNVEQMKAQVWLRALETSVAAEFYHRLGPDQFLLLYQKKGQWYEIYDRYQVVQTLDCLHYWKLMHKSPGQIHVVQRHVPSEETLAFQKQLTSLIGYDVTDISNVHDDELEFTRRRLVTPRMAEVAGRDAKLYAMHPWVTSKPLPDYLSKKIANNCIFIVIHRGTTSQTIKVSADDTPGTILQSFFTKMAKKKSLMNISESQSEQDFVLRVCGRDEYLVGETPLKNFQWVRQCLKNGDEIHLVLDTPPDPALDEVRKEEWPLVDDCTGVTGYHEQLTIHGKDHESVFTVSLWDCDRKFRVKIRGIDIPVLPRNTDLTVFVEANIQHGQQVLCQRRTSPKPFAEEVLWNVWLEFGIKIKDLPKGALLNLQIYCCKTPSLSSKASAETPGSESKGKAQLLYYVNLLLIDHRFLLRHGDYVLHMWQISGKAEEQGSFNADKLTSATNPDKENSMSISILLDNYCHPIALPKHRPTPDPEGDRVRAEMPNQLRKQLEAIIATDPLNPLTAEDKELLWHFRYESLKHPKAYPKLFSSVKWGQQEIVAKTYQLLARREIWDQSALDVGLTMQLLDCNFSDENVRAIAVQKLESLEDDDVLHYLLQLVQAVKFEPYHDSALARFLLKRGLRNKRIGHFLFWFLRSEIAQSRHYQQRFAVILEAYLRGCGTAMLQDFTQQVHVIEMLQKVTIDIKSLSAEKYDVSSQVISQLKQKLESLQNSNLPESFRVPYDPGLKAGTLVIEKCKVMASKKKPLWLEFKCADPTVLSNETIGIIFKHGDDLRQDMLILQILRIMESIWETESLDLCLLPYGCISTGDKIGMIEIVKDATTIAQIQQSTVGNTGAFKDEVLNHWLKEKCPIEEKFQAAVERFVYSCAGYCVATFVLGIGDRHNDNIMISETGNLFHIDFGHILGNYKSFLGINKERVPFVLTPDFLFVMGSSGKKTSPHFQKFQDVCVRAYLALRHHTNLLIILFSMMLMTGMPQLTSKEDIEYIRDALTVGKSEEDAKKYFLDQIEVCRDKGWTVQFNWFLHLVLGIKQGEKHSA
Source text: Briefly, serum-starved RAW264.7 cells are stimulated with a known GPCR agonist C5a. […] Cells can be treated with test compounds prior to, simultaneously with, or subsequent to the stimulation by C5a. RAW 264.7 cells respond to the complement component fragment C5a through activation of the C5a receptor, and the C5a receptor activates macrophages and induces cell migration.

Sequence of PI3K γ (P48736 whole entry): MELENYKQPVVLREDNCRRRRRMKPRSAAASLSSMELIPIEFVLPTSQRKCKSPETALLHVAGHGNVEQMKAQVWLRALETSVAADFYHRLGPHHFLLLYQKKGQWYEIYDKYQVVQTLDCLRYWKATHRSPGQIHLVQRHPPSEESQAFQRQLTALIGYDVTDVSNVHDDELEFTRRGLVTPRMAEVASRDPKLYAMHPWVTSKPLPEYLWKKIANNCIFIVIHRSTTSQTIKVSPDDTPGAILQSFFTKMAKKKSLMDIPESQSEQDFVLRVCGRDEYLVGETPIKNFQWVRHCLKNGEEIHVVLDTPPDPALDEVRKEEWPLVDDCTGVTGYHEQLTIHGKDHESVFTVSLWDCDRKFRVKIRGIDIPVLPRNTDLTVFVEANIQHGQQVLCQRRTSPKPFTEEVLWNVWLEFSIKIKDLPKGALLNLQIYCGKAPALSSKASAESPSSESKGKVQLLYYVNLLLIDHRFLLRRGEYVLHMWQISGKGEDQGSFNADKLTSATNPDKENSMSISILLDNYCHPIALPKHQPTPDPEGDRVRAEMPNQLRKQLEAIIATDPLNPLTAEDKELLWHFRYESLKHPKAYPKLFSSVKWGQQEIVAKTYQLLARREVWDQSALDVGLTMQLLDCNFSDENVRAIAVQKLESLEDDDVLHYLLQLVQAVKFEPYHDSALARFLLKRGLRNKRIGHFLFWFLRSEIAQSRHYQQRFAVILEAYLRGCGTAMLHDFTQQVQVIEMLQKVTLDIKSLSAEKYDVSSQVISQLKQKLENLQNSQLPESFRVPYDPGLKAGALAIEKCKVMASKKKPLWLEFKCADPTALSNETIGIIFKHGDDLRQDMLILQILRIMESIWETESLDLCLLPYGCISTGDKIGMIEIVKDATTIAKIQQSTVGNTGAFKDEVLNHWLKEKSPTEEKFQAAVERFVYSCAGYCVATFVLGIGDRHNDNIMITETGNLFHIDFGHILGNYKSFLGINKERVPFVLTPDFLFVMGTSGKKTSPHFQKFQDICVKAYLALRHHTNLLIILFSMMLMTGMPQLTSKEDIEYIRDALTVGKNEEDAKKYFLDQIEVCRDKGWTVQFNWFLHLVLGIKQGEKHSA
Sequence of PI3K α (P42336 whole entry): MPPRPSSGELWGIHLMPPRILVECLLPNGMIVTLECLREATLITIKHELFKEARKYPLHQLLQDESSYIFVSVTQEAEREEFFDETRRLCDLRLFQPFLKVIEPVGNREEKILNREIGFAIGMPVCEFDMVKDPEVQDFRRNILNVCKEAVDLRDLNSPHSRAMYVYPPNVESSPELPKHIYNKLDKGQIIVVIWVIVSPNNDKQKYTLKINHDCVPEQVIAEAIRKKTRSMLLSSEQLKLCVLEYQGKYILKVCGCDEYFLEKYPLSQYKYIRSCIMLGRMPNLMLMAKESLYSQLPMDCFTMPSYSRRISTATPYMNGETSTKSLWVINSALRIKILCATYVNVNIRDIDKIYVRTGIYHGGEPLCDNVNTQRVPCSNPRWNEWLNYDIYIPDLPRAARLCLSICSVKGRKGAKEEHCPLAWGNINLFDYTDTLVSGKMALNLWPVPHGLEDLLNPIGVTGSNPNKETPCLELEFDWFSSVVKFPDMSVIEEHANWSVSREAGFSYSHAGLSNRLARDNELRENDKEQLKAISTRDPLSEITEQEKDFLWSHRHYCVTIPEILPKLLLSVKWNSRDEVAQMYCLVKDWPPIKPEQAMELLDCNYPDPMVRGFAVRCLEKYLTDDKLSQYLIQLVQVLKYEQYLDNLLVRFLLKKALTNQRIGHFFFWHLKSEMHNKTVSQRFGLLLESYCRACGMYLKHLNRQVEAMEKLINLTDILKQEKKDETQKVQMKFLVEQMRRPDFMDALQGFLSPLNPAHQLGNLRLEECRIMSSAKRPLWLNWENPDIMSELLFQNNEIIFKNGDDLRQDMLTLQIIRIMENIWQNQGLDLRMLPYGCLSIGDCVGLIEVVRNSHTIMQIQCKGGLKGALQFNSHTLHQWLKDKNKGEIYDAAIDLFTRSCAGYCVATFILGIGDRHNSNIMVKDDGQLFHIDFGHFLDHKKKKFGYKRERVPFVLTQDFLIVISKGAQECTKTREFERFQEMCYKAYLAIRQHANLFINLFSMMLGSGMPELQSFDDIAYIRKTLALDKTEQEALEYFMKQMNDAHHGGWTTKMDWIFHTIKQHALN
Sequence of PI3K α (P27986 whole entry partner): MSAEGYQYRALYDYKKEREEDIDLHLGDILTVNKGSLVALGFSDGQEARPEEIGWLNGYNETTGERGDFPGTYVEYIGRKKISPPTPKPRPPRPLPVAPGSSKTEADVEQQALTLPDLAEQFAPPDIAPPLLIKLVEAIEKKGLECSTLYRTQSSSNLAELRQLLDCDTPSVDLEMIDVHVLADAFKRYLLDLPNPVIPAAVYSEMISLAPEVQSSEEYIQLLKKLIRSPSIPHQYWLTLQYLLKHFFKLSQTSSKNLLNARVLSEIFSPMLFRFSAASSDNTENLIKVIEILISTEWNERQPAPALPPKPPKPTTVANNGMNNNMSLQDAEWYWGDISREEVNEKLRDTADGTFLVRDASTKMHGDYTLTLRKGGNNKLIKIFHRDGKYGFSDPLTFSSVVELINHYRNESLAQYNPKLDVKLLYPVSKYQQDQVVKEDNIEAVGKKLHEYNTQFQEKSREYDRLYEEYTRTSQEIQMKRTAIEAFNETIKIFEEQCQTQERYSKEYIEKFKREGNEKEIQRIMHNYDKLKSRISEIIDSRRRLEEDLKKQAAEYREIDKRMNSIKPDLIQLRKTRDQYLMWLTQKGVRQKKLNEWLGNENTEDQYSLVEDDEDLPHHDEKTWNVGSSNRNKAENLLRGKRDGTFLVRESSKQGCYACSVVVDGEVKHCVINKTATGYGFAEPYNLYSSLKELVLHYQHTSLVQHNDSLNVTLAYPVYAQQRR
Sequence of PI3K β (P42338 whole entry): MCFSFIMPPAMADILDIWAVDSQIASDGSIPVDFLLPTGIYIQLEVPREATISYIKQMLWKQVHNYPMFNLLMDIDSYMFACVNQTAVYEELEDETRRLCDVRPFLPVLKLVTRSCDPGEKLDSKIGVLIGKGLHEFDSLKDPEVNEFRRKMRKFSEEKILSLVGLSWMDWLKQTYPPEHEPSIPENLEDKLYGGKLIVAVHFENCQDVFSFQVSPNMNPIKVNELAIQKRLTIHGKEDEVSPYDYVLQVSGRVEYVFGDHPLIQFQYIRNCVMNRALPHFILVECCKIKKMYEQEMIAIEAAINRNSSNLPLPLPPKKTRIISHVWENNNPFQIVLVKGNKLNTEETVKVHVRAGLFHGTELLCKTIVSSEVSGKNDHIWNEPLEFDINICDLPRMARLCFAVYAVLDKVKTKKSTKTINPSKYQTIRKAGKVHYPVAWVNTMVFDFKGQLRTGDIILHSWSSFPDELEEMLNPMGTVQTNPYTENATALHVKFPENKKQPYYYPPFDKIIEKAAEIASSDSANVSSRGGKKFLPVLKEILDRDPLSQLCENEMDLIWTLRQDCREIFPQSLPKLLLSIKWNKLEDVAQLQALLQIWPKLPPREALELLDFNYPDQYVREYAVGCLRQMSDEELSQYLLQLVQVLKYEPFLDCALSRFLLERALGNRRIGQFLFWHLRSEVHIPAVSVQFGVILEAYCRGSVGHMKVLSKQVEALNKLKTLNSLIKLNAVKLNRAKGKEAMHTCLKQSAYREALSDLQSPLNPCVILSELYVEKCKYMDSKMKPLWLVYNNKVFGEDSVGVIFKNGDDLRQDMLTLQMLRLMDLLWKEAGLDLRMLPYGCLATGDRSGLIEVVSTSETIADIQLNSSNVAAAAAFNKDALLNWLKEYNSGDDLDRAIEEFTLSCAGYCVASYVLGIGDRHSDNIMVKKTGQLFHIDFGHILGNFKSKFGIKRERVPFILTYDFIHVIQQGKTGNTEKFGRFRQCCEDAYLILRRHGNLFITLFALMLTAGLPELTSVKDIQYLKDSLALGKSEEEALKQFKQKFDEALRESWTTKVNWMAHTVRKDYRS
Sequence of PI3K β (P27986 whole entry partner): as the sequence (P27986 whole entry partner) above

Row | Structure (SMILES) | pIC50 (PI3K α) | pIC50 (PI3K β) | pIC50 (PI3K δ) | pIC50 (PI3K γ) | PI3K δ/PI3K γ IC50 (selectivity) (PI3K γ) | pIC50 (PI3K-δ in RAJI cells) | RAJIδ/Raw264.7 γ IC50 (selectivity) [1] | pIC50 [1]
1 | Cc1csc(C#Cc2cccc3cc([C@H](C)NC(=O)c4c(N)nn5cccnc45)n(-c4ccccc4)c(=O)c23)n1 [Compound 60] | 5.00 to 5.30 | 5.00 to 5.30 | 5.00 to 5.30 | 6.30 to 7.00 | X (X = 10 to <50) | 6.30 to 7.00 | Y (Y = 50 to <850) | 7.30 to 9.00
2 | Cc1ccncc1C#Cc1cccc2cc([C@H](C)NC(=O)c3c(N)nn4cccnc34)n(-c3ccccc3)c(=O)c12 [Compound 61] | 5.00 to 5.30 | 5.00 to 5.30 | 5.00 to 5.30 | 6.00 to 6.30 | X (X = 10 to <50) | 5.00 to 6.00 | Y (Y = 50 to <850) | 7.30 to 9.00
3 | C[C@H](NC(=O)c1c(N)nn2cccnc12)c1cc2cccc(C#CC3(O)CN4CCC3CC4)c2c(=O)n1-c1ccccc1 (stereo partly drawn) [Compound 62] | 5.00 to 5.30 | 5.00 to 5.30 | 5.00 to 5.30 | 6.00 to 6.30 | X (X = 10 to <50) | 5.00 to 6.00 | V (V = 0.1 to 1) | 5.00 to 7.00
4 | Cc1nc(C#Cc2cccc3nc([C@H](C)NC(=O)c4c(N)nn5cccnc45)n(-c4ccccc4)c(=O)c23)cs1 [Compound 63] | 5.00 to 5.30 | 5.00 to 5.30 | 5.00 to 5.30 | 7.00 to 9.00 | Y (Y = 50 to <850) | 6.00 to 6.30 | Y (Y = 50 to <850) | 7.30 to 9.00
5 | C[C@H](NC(=O)c1c(N)nn2cccnc12)c1cc2cccc(C#CC3CCCC3)c2c(=O)n1-c1ccccc1 [Compound 64] | 5.00 to 5.30 | 5.00 to 5.30 | 5.00 to 5.30 | 5.30 to 6.00 | W (W = >1 to <10) | 5.00 to 6.00 | X (X = 10 to <50) | 5.00 to 7.00
6 | C[C@H](NC(=O)c1c(N)nn2cccnc12)c1cc2cccc(C#CC3CCCCC3)c2c(=O)n1-c1ccccc1 [Compound 65] | 5.00 to 5.30 | 5.00 to 5.30 | 5.00 to 5.30 | 5.30 to 6.00 | W (W = >1 to <10) | 5.00 to 6.00 | X (X = 10 to <50) | 5.00 to 7.00
7 | C[C@H](NC(=O)c1c(N)nn2cccnc12)c1cc2cccc(C#Cc3cocn3)c2c(=O)n1-c1ccccc1 [Compound 66] | 5.00 to 5.30 | 5.30 to 6.00 | 5.30 to 6.00 | 7.00 to 9.00 | X (X = 10 to <50) | 6.30 to 7.00 | X (X = 10 to <50) | 7.30 to 9.00
8 | Cc1ncccc1C#Cc1cccc2cc([C@H](C)NC(=O)c3c(N)nn4cccnc34)n(-c3ccccc3)c(=O)c12 [Compound 67] | 5.00 to 5.30 | 5.00 to 5.30 | 5.00 to 5.30 | 5.30 to 6.00 | W (W = >1 to <10) | 5.00 to 6.00 | X (X = 10 to <50) | 5.00 to 7.00
9 | Cc1cnc(C(=O)N[C@@H](C)c2cc3cccc(C#Cc4cnn(C)c4)c3c(=O)n2-c2ccccc2)c(N)n1 [Compound 68] | 5.00 to 5.30 | 5.00 to 5.30 | 5.00 to 5.30 | 5.30 to 6.00 | W (W = >1 to <10) | 5.00 to 6.00 | W (W = >1 to <10) | 5.00 to 7.00
10 | C/C=C/c1cccc2cc([C@H](C)NC(=O)c3c(N)nn4cccnc34)n(-c3ccccc3)c(=O)c12 [Compound 70] | 5.00 to 5.30 | 5.00 to 5.30 | 5.00 to 5.30 | 6.30 to 7.00 | X (key: V = 0.1 to 1; W = >1 to <10; X = 10 to <50; Y = 50 to <850) | 7.00 to 9.00 | X (X = 10 to <50) | 7.30 to 9.00
11 | C[C@H](NC(=O)c1c(N)nn2cccnc12)c1cc2cccc(C#CC3CCNCC3)c2c(=O)n1-c1ccccc1 [Compound 72] | 5.00 to 5.30 | 5.00 to 5.30 | 5.00 to 5.30 | 6.00 to 6.30 | X (X = 10 to <50) | 5.00 to 6.00 | W (W = >1 to <10) | 5.00 to 7.00
12 | C[C@H](NC(=O)c1c(N)nn2cccnc12)c1cc2cccc(C#Cc3ccnn3C)c2c(=O)n1-c1ccccc1 [Compound 73] | 5.00 to 5.30 | 5.00 to 5.30 | 5.00 to 5.30 | 6.30 to 7.00 | X (X = 10 to <50) | 6.00 to 6.30 | Y (Y = 50 to <850) | 7.30 to 9.00
13 | C[C@H](NC(=O)c1c(N)nn2cccnc12)c1cc2cccc(C#CC3CNC3)c2c(=O)n1-c1ccccc1 [Compound 74] | 5.00 to 5.30 | 5.00 to 5.30 | 5.30 to 6.00 | 6.00 to 6.30 | W (key: V = 0.1 to 1; W = >1 to <10; X = 10 to <50; Y = 50 to <850) | 5.00 to 6.00 | W (key: V = 0.1 to 1; W = >1 to <10; X = 10 to <50; Y = 50 to <850) | 5.00 to 7.00
14 | Cc1ncsc1C#Cc1cccc2cc([C@H](C)NC(=O)c3c(N)nn4cccnc34)n(-c3ccccc3)c(=O)c12 [Compound 75] | 5.00 to 5.30 | 5.00 to 5.30 | 5.00 to 5.30 | 5.30 to 6.00 | W (W = >1 to <10) | 5.00 to 6.00 | Y (Y = 50 to <850) | 7.30 to 9.00
15 | Cc1ncc(C#Cc2cccc3cc([C@H](C)NC(=O)c4c(N)nn5cccnc45)n(-c4ccccc4)c(=O)c23)s1 [Compound 76] | 5.00 to 5.30 | 5.00 to 5.30 | 5.00 to 5.30 | 6.30 to 7.00 | Y (Y = 50 to <850) | 6.30 to 7.00 | X (X = 10 to <50) | 7.30 to 9.00
16 | Cc1ccc(C#Cc2cccc3cc([C@H](C)NC(=O)c4c(N)nn5cccnc45)n(-c4ccccc4)c(=O)c23)cn1 [Compound 77] | 5.00 to 5.30 | 5.00 to 5.30 | 5.00 to 5.30 | 7.00 to 9.00 | Y (Y = 50 to <850) | 6.00 to 6.30 | Y (Y = 50 to <850) | 7.30 to 9.00
17 | Cc1scnc1C#Cc1cccc2cc([C@H](C)NC(=O)c3c(N)nn4cccnc34)n(-c3ccccc3)c(=O)c12 [Compound 78] | 5.00 to 5.30 | 5.00 to 5.30 | 5.00 to 5.30 | 6.30 to 7.00 | X (X = 10 to <50) | 6.30 to 7.00 | X (X = 10 to <50) | 7.30 to 9.00
18 | Cc1nc(C)c(C#Cc2cccc3cc([C@H](C)NC(=O)c4c(N)nn5cccnc45)n(-c4ccccc4)c(=O)c23)s1 [Compound 79] | 5.00 to 5.30 | 5.00 to 5.30 | 5.00 to 5.30 | 6.00 to 6.30 | X (X = 10 to <50) | 5.00 to 6.00 | Y (Y = 50 to <850) | 7.30 to 9.00
19 | C[C@H](NC(=O)c1c(N)nn2cccnc12)c1cc2cccc(C#Cc3cn[nH]c3)c2c(=O)n1-c1ccccc1 [Compound 80] | 5.30 to 6.00 | 5.30 to 6.00 | 5.00 to 5.30 | 7.00 to 9.00 | Y (key: V = 0.1 to 1; W = >1 to <10; X = 10 to <50; Y = 50 to <850) | 6.30 to 7.00 | Y (key: V = 0.1 to 1; W = >1 to <10; X = 10 to <50; Y = 50 to <850) | 7.30 to 9.00
20 | CC(=O)N1CCC(C#Cc2cccc3cc([C@H](C)NC(=O)c4c(N)nn5cccnc45)n(-c4ccccc4)c(=O)c23)CC1 [Compound 82] | 5.00 to 5.30 | 5.00 to 5.30 | 5.00 to 5.30 | 6.30 to 7.00 | X (key: V = 0.1 to 1; W = >1 to <10; X = 10 to <50; Y = 50 to <850) | 6.00 to 6.30 | X (key: V = 0.1 to 1; W = >1 to <10; X = 10 to <50; Y = 50 to <850) | 7.30 to 9.00
21 | C[C@H](NC(=O)c1c(N)nn2cccnc12)c1cc2cccc(C#CC3CCN(S(C)(=O)=O)CC3)c2c(=O)n1-c1ccccc1 [Compound 83] | 5.00 to 5.30 | 5.00 to 5.30 | 5.00 to 5.30 | 6.00 to 6.30 | X (key: V = 0.1 to 1; W = >1 to <10; X = 10 to <50; Y = 50 to <850) | 6.00 to 6.30 | X (key: V = 0.1 to 1; W = >1 to <10; X = 10 to <50; Y = 50 to <850) | 7.30 to 9.00
22 | C[C@H](NC(=O)c1c(N)nn2cccnc12)c1cc2cccc(C#CC3CCOC3)c2c(=O)n1-c1ccccc1 (stereo partly drawn) [Compound 84] | 5.00 to 5.30 | 5.00 to 5.30 | 5.00 to 5.30 | 7.00 to 9.00 | Y (Y = 50 to <850) | 6.30 to 7.00 | X (X = 10 to <50) | 7.30 to 9.00
23 | C[C@H](NC(=O)c1c(N)nn2cccnc12)c1cc2ccc3ccccc3c2c(=O)n1-c1ccccc1 [Compound 89] | 5.00 to 5.30 | 5.00 to 5.30 | 5.00 to 5.30 | 6.00 to 6.30 | X (X = 10 to <50) | 5.00 to 6.00 | Y (Y = 50 to <850) | 7.30 to 9.00
24 | C[C@H](NC(=O)c1c(N)nn2cccnc12)c1cc2cccc(NC(=O)c3cnn(C)c3)c2c(=O)n1-c1ccccc1 [Compound 90] | 5.00 to 5.30 | 5.00 to 5.30 | 5.00 to 5.30 | 5.30 to 6.00 | W (key: V = 0.1 to 1; W = >1 to <10; X = 10 to <50; Y = 50 to <850) | 5.00 to 6.00 | X (key: V = 0.1 to 1; W = >1 to <10; X = 10 to <50; Y = 50 to <850) | 5.00 to 7.00
